# Measurements: US6843784B2, “Triclosan and silver compound containing medical devices” (priority 1999, dated 2005)
# Values joined by “and” are separate entries in the source; they are usually repeats but may differ in a detail not shown here. Identical values can stand only once. Like-named read-outs stand apart in the source and are kept apart here.
# Tested on: S. aureus
# Assay type: cell-based
smiles,measurement,setting,value
"Oc1cc(Cl)ccc1Oc1ccc(Cl)cc1Cl [Triclosan, 2,4,4′-trichloro-2′-hydroxydiphenyl ether]",Growth in Culture,,2 × 10^7 cfu/ml and 1.2 × 10^7 cfu/ml
same,reduction in growth in culture,0.5 percent triclosan alone (Table 4 experiment),0 log
same,Growth in Culture,"Solution: Triclosan 0.25%, Silver Sulfadiazine 0%, after 10 minutes, control 2.1 × 10^7",1.2 × 10^7 cfu/ml
same,Growth in Culture,"Solution: Triclosan 0.5%, Silver Sulfadiazine 0%, after 10 minutes, control 2.1 × 10^7",1 × 10^7 cfu/ml
same,reduction in growth in culture compared to the control,triclosan alone at 0.25 percent (Table 3 experiment),less than a power of 10
same,reduction in growth in culture compared to the control,triclosan alone at 0.5 percent (Table 3 experiment),less than a power of 10
